Assay results from PMC9623576, “Semisynthesis and Evaluation of Anti-Inflammatory Activity of the Cassane-Type Diterpenoid Taepeenin F and of Some Synthetic Intermediates” (Journal of Natural Products, 2022).
“Also recorded” adds a separate entry of the source.

Key:
[1] = test system: RAW 264.7 monocyte/macrophage murine cells; assay: MTT growth inhibition on RAW 264.7 cells; format: cell-based; conditions: Mus musculus, RAW264.7, RAW 264.7, MTT; for IC20: 20% growth inhibition; for IC80: 80% growth inhibition
Description: (§1) A stock solution was frozen and stored at […]. Before the experiments, this solution was diluted in cell-culture medium to the adequate concentrations for each experiment. […] For nitrite assay, subcytotoxic concentrations (3/4IC50, 1/2IC50, and 1/4IC50), were used to ensure that the NO inhibitory potential was not due to a possible cytotoxic effect. The concentrations of 3/4IC50, 1/2IC50, and 1/4IC50 were used for the cell-cycle analysis. All experiments were measured and compared with control (untreated cells after 24, 48, or 72 h of treatment.)
In all experiments, monolayer cells were grown to 80–90% confluence, in sterile cell culture flasks. All cell lines used were purchased from the cell bank of the University of Granada, Spain.
The cytotoxicity assay was performed by the MTT (3-(4,5-dimethylthiazol-2-yl)-2,5-diphenyltetrazolium bromide) method.[21] […] All tested compounds were prepared in fresh growth medium. After 24 h, an additional 100 μL of medium with the corresponding concentrations of products (only medium in the control wells) was added to the corresponding wells, at various final concentrations (0–100 μg/mL). […] After 1.5 h of incubation, formazan was resuspended in 100 μL of DMSO, and each concentration was tested in triplicate.
Cytotoxicity experimental data were fitted to a sigmoidal function (y = ymax/(x/a)^−b) by nonlinear regression. […] Similar analyses were performed to obtain the IC50 of NO production. All data shown here are representative of at least two independent experiments performed in triplicate. All quantitative data were summarized as the mean ± standard deviation (SD).

[2] = test system: HepG2 human hepatocarcinoma cells; assay: MTT cancer cell proliferation assay, HepG2; format: cell-based; conditions: Homo sapiens, HepG2, 72 h, MTT; for IC50: read-out: IC50; for IC20: read-out: IC20
Description: (§2) The five newly synthesized diterpenoids were evaluated for their cytotoxic effects against three selected tumor cell lines, B16-F10 murine melanoma cells, HT29 human colon adenocarcinoma cells, and HepG2 human hepatocarcinoma cells at increasing concentrations (0–100 μg/mL). After 72 h of treatment, cell viability was determined by an MTT assay, where the tetrazolium dye was transformed into formazan in the mitochondria of viable cells, its absorbance measured at 570 nm and expressed as a percentage with respect to untreated control cells (S3 Figure.). The concentrations required for 20, 50, and for 80% growth inhibition (IC20, IC50, and IC80) were also determined for each compound (Table 2).
as §1
(§3) Human colorectal adenocarcinoma cell line HT29 (ECACC no. 9172201; ATCC no. HTB-38), human hepatocarcinome cell line HepG2 (ECACC no. 85011430), mouse melanoma cells B16-F10 (ATCC no. CRL-6475), and murine monocyte/macrophage-like RAW 264.7 cell line (ATCC no, TIB-71) were cultured in DMEM (Dulbecco’s modified Eagle’s medium) supplemented with 2 mM glutamine, 10% heat-inactivated FCS (fetal calf serum), 10 000 units/mL of penicillin and 10 mg/mL of streptomycin, (for all cancer cell lines), 50 μg/mL of gentamicin (only for RAW 264.7 cell line), and incubated at 37 °C, in an atmosphere of 5% CO2 and 95% humidity. The culture media were changed every 48 h, and the confluent cultures were separated with a trypsin solution (0.25% EDTA). In all experiments, monolayer cells were grown to 80–90% confluence, in sterile cell culture flasks. All cell lines used were purchased from the cell bank of the University of Granada, Spain.
(§4) The cytotoxicity assay was performed by the MTT (3-(4,5-dimethylthiazol-2-yl)-2,5-diphenyltetrazolium bromide) method.[21] To quantify the cytotoxicity of compounds, the fresh and suspended cells were seeded in 96-well plates to a volume of 100 μL at 6.0 × 10^3 cells/mL for HT29 and RAW 264.7 cell lines, at 5.0 × 10^3 cells/mL for B16-F10 cells and 15.0 × 10^3 for Hep G2. Then, cells were incubated to adhere over 24 h at 37 °C with 5% CO2. All tested compounds were prepared in fresh growth medium. After 24 h, an additional 100 μL of medium with the corresponding concentrations of products (only medium in the control wells) was added to the corresponding wells, at various final concentrations (0–100 μg/mL). Finally, after 72 h of incubation at 37 °C with 5% CO2, the medium with the compounds were removed and 100 μL of MTT solution (0.5 mg/mL) in 50% of PBS 50% of medium was added to each well. After 1.5 h of incubation, formazan was resuspended in 100 μL of DMSO, and each concentration was tested in triplicate. Relative cell viability, with respect to untreated control cells, was measured by absorbance at 570 nm on an ELISA plate reader (Tecan Sunrise MR20-301, TECAN, Austria).
(§5) Cytotoxicity experimental data were fitted to a sigmoidal function (y = ymax/(x/a)^−b) by nonlinear regression. […] These analyses were performed using SigmaPlot 12.5 software. Similar analyses were performed to obtain the IC50 of NO production. All data shown here are representative of at least two independent experiments performed in triplicate. All quantitative data were summarized as the mean ± standard deviation (SD).

[3] = test system: HT29 human colon adenocarcinoma cells; assay: MTT cancer cell proliferation assay, HT29; format: cell-based; conditions: Homo sapiens, HT29, 72 h, MTT; for IC50: HT-29, 72 h, read-out: IC50; for IC80 / IC20: HT-29; for IC20: read-out: IC20
Description: as §2, §1, §3, §4, §5

B16-F10 cells = assay: Mitochondrial membrane potential, Rh123/PI flow cytometry; format: cell-based, murine; conditions: B16-F10, 72 h; for changes in mitochondrial membrane potential (MMP): IC50 and IC80 concentrations, Rh123/IP
Source text: In addition, the loss of part of MMP can be related to the secondary activation of the intrinsic apoptotic pathway as a final event in the extrinsic apoptosis mechanism. Further molecular studies will be necessary to confirm these conclusions.
The electrochemical gradient across the mitochondrial membrane was investigated by analytical flow cytometry, using dihydrorhodamine (DHR). DHR is oxidized in contact with living cells, forming a highly fluorescent product called rhodamine (Rh 123). The emitted fluorescence can be monitored by fluorescence spectroscopy using excitation and emission wavelengths of 500 and 536 nm, respectively.[37]−[39] […] After treatment, the culture medium was renewed by adding fresh medium with DHR to a final concentration of […]. Cells were incubated for 1 h at 37 °C in an atmosphere of 5% CO2 and 95% humidity and subsequently washed and resuspended in PBS with 5 μg/mL of PI. The fluorescence intensity was measured using a FACScan flow cytometer (fluorescence-activated cell sorter). The experiments were performed three times with two replicates per assay.

SMILES | IC50 [1] [µM] | IC20 [1] [µM] | IC80 [1] [µM] | IC50 [2] [µM] | IC20 [2] [µM] | IC50 [3] [µM] | IC80 [3] [µM] | IC20 [3] [µM] | changes in mitochondrial membrane potential (MMP) (B16-F10 cells) | IC80 [2] [µM] | population of Rh123 negative cells versus control untreated cells (B16-F10 cells; IC80 concentration)
COC(=O)[C@]1(C)CCC[C@@]2(C)[C@H]1CC=C1C(C)=C(C(C)C)C(=O)C[C@@H]12 [Compound 16, (1R,4aR,10aR)-Methyl 7-isopropyl-1,4a,8-trimethyl-6-oxo-1,2,3,4,4a,4b,5,6,10,10a-decahydrophenanthrene-1-carboxylate] | 33.1 ± 3.62 | 30.1 ± 0.49 | 33.81 ± 0.08 | 18.5 ± 4.73 | 5.05 ± 2.74 | 33.4 ± 2.16 | 55 ± 0.93 | 21.4 ± 3.09 | did not cause any loss of the mitochondrial membrane potential; also recorded: did not produce any changes in MMP |  | 
COC(=O)[C@]1(C)CCC[C@]2(C)c3cc(O)c(C=O)c(C)c3CC[C@@H]12 [Compound 21, (1R,4aS,10aR)-Methyl 7-formyl-6-hydroxy-1,4a,8-trimethyl-1,2,3,4,4a,9,10,10a-octahydrophenanthrene-1-carboxylate] | 21.1 ± 0.96 | 17.8 ± 1.34 | 25.3 ± 0.58 | 37.9 ± 5.4 | 33.2 ± 8.64 | 20.1 ± 0.61 | 30.6 ± 0.81 | 13.5 ± 0.55 | partial loss of the MMP | 45.3 ± 0.9 | higher
